Assays:
[1] = Mice plasma concentration after oral dose; format: in vivo; details: 30 min to 4 h after single or repeat oral dose of 30 mg/kg
[2] = target: T1, Aβ 1-42 (Homo sapiens, UniProt P05067); assay: Fluorometric H2O2 assay (inhibition of Abeta H2O2 production); format: biochemical; details: concentration required to inhibit 50% of Abeta H2O2 production; read-out: H2O2 IC50
T1 construct: The reaction solutions contained Aβ 1-42 at concentrations
In short: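 Copper-dependent Aβ H2O2 production measured fluorometrically with deacetylated dichlorofluorescein plus HRP in PBS, pH 7.4. Incubation 60 min at 37 C, test compound included in wells. H2O2 quantified against H2O2 standards.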

[3] = system: metal ions in retinal drusen; assay: Post mortem retina screening, ZP1 zinc labeling of Bruch membrane; details: 15 hours incubation; TPEN 100 μM, PB-1033 100 and 250 μM; 10 μM ZP1
Description: Post Mortem Screening The BAS assay is adopted for post mortem retina. Using a trephine, 6 mm diameter regions of peripheral retina from frozen donor eyes are dissected. Following defrosting, the neuronal retina and the RPE cells are removed by gentle agitation in PBS buffer. Following removal of the RPE cells, strips of the Bruch membrane are cut from the eye. 4 samples are prepared: 1) Control […] Samples are then washed 3 times and the labeling visualized using a fluorescence and confocal microscope. A repeat of this procedure is performed with the exception that samples are incubated for a period of 15 hours before washing to determine differential metal binding over this longer period. The test results are in the form of fluorescence imaging from a confocal microscope of the 4 samples tested in this Example after 15 hours of sample incubation. […] Fluorescence microscopic photographs (which are in colour) are available upon request from the […].

[4] = target: T2, Abeta:Zn (25:50 μM) Synthetic Aggregations (Homo sapiens, UniProt P05067); assay: Disaggregation of Abeta:Zn synthetic aggregates (ThT fluorescence); format: biochemical
T2 construct: PB Compound Mediated Dissolution of Aggregated Abeta 1-42; purchased Keck Laboratory, Yale University School of Medicine
In short: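 Abeta1-42 (25 μM) with ZnCl2 (50 μM) and ThT (50 μM) in PBS pH 6.6 was preaggregated 24 h at 37 degrees with rotation. Aggregates were then exposed to compound (final 1-50 μM, DMSO) for 2 h at 37 degrees. ThT fluorescence was read at ex 450/em 480 nm.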

[5] = system: Aβ deposits; details: daily oral gavage 30 mg/kg, 9 weeks, 13-14 months old transgenic mice
[6] = system: dityrosine oligomerization; assay: CuTy: inhibition of dityrosine oligomerization; format: biochemical; details: referenced to in-house standard (set as 100% inhibition)

T2 sequence (P05067 672-713 limits assumed): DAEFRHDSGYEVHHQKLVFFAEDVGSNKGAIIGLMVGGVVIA
T1 sequence (P05067 672-713 limits assumed): as above

CN(C)Cc1ccc2c(Cl)cc(Cl)c(O)c2n1.Cl [PB 1033]
Mice plasma concentration [1]: Up to 500 ng/ml ng/mL
IC50 [2]: 0.35 µM
ZP1 (zinc sensor) labeling of post mortem Bruch membrane [3]: inhibited ZP1 labeling
Disaggregation % Aggregate reduction at 5 μM ([4]; 5 μM test compound): 33.2%
EC50 ([4]; Abeta:Zn 25:50 μM aggregates): 18.6 µM
Tg Mice % difference from control in Amyloid plaque abundance [5]: −42%
Tg Mice % difference from control in insoluble brain amyloid burden [5]: −29%
Tg Mice % difference from control in soluble brain amyloid burden [5]: −37%
CuTy % inhibition of dityrosine oligomerization [6]: 100%

Reference: US9163018B2, “Method of treatment of age-related macular degeneration (AMD)” (Prana Biotechnology Limited, priority 2006, dated 2015)
